Laboratory results reported in PMC10688161 (ACS Omega, 2023).

Target: SARS-CoV-2 M^pro (3CL^pro), MBP-tagged 3CL protease (Severe acute respiratory syndrome coronavirus 2, UniProt P0DTD1)
Experiment: biochemical

For `O=C(O)c1cc(C(=O)O)c2c(n1)C(=O)C(=O)c1cc(C(=O)O)[nH]c1-2` [PQQ, 4,5-dioxo-4,5-dihydro-1H-pyrrolo[2,3-f] quinoline-2,7,9-tricarboxylic acid], the IC50 was 2800 nM.
